Measurements: ChEMBL document CHEMBL5512599, “Synthetic non-toxic anti-biofilm agents as a strategy in combating bacterial resistance” (Eur J Med Chem, 2023)
pIC50: −log10 of the molar value. In brackets after ≈: the same amount, converted by molar mass.

Legend:
Staphylococcus aureus [1] = assay: Antibiofilm activity against Staphylococcus aureus ATCC 25923 at 25 ug/ml measured after 24 hrs by crystal violet staining based analysis relative to control; format: functional; settings: dose 25 µg/ml
[2] = target: T1, Transcriptional regulator MvfR (Pseudomonas aeruginosa PA14, UniProt A0A072ZLE6); assay: Antagonist activity at PqsR in wild-type Pseudomonas aeruginosa PAO1-L
T1 sequence (A0A072ZLE6 whole entry): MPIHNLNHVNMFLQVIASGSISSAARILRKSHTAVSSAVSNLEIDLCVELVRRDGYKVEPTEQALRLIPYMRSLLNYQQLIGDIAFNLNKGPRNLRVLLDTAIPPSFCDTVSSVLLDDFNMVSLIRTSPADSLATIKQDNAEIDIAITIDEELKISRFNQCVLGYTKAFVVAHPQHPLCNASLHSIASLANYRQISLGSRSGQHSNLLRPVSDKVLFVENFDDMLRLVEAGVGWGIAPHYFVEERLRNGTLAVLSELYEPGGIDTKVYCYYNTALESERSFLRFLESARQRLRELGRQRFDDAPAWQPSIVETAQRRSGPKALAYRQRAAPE

Staphylococcus aureus [3] = assay: Antibiofilm activity against Staphylococcus aureus ATCC 33862 assessed as reduction in biofilm formation at 20 uM incubated for 24 hrs by absorbance based assay relative to control; format: functional; design: scale not given: the % may be the effect or the level left
Pseudomonas aeruginosa [4] = assay: Antibiofilm activity against Pseudomonas aeruginosa ATCC 10145 assessed as reduction in biofilm formation at 20 uM incubated for 24 hrs by absorbance based assay relative to control; format: functional; design: scale not given: the % may be the effect or the level left
Enterococcus faecalis [5] = assay: Antibacterial activity against Enterococcus faecalis ATCC 29212 assessed as bacterial growth inhibition incubated for 15 to 18 hrs by Muller hinton broth based dilution assay; format: functional; settings: time 15-18 hrs
Enterococcus faecalis [6] = assay: Antibiofilm activity against Enterococcus faecalis ATCC 29212 assessed as biofilm eradication incubated for 20 mins by crystal violet staining based analysis; format: functional
[7] = Inhibition of quorum sensing system in Pseudomonas aeruginosa PA14 assessed as inhibition of pyocyanin production
Pseudomonas aeruginosa [8] = assay: Antibiofilm activity against Pseudomonas aeruginosa ATCC 27853 assessed as inhibition of biofilm formation at 0.5 times of MIC by crystal violet staining based analysis relative to control; format: functional; design: scale not given: the % may be the effect or the level left
[9] = Inhibition of quorum sensing system in Pseudomonas aeruginosa PAO1 assessed as inhibition of pyocyanin production at 256 ug/ml incubated for 24 hrs by absorbance based assay; settings: for inhibition: dose 256.0 µg/ml
Pseudomonas aeruginosa [10] = assay: Antibiofilm activity against Pseudomonas aeruginosa PAO1 assessed as inhibition of biofilm formation at 64 microg/ml incubated for 24 hrs by BacTiter Glo reagent based luminescence analysis relative to control; format: functional; design: scale not given: the % may be the effect or the level left; settings: dose 64 µg/ml
[11] = Inhibition of Quorum sensing system Las in Pseudomonas aeruginosa PAO1 assessed as reduction in interaction with LasR regulator
Pseudomonas aeruginosa [12] = assay: Antibiofilm activity against Pseudomonas aeruginosa PAO1 assessed as inhibition of biofilm formation at 100 uM relative to control; format: functional; design: scale not given: the % may be the effect or the level left
Pseudomonas aeruginosa [13] = assay: Antibacterial activity against Pseudomonas aeruginosa 27853 assessed as inhibition of bacterial growth at 32 microg/ml incubated for 24 hrs in presence of Ciprofloxacin by absorbance based microplate reader analysis relative to control; format: functional; design: scale not given: the % may be the effect or the level left; settings: dose 32 µg/ml
Pseudomonas aeruginosa [14] = assay: Antibacterial activity against Pseudomonas aeruginosa 27853 assessed as inhibition of bacterial growth at 32 microg/ml incubated for 24 hrs in presence of Clarithromycin by absorbance based microplate reader analysis relative to control; format: functional; design: scale not given: the % may be the effect or the level left; settings: dose 32 µg/ml
Pseudomonas aeruginosa [15] = assay: Antibiofilm activity against Pseudomonas aeruginosa PAO1 assessed as inhibition of biofilm formation incubated at 15 uM relative to control; format: functional; design: scale not given: the % may be the effect or the level left
Pseudomonas aeruginosa [16] = assay: Antibiofilm activity against Pseudomonas aeruginosa PA14 assessed as inhibition of biofilm formation incubated for 24 hrs by microscopic analysis; format: functional, organism-based; settings: PA14, 24 h
Staphylococcus aureus [17] = assay: Antimicrobial activity against Staphylococcus aureus ATCC 25923 assessed as reduction in bacterial growth at 0.5 uM incubated for 16 hrs by broth dilution method relative to control; format: functional; design: scale not given: the % may be the effect or the level left
Staphylococcus aureus [18] = assay: Antimicrobial activity against Staphylococcus aureus ATCC 25923 assessed as reduction in bacterial growth at 0.25 uM incubated for 16 hrs by broth dilution method relative to control; format: functional; design: scale not given: the % may be the effect or the level left
Staphylococcus aureus [19] = assay: Antimicrobial activity against Staphylococcus aureus ATCC 25923 assessed as reduction in bacterial growth at 0.12 uM incubated for 16 hrs by broth dilution method relative to control; format: functional; design: scale not given: the % may be the effect or the level left
Staphylococcus aureus [20] = assay: Antibiofilm activity against Methicillin-resistant Staphylococcus aureus ATCC BAA-4A assessed as inhibition of biofilm formation; format: functional, organism-based
Staphylococcus aureus [21] = assay: Antibiofilm activity against methicillin-resistant Staphylococcus aureus assessed as inhibition of biofilm formation incubated for overnight by crystal violet staining based microtiter plate assay; format: functional, organism-based
[22] = target: T1, Transcriptional regulator MvfR; assay: Inhibition of PqsR-mediated quorum sensing system in Pseudomonas aeruginosa PAO1 assessed as reduction in pyocyanin production
Pseudomonas aeruginosa [23] = assay: Antibiofilm activity against Pseudomonas aeruginosa PAO1 assessed as inhibition of biofilm formation incubated at 50 uM incubated for 24 hrs by crystal violet staining based analysis relative to control; format: functional; design: scale not given: the % may be the effect or the level left
Pseudomonas aeruginosa [24] = assay: Antibiofilm activity against Pseudomonas aeruginosa PAO1 assessed as reduction in biofilm formation at 100 uM incubated for 24 hrs by crystal violet staining based analysis relative to control; format: functional; design: scale not given: the % may be the effect or the level left
Klebsiella pneumoniae = assay: Antibiofilm activity against Klebsiella pneumoniae ATCC 13882 assessed as inhibition of biofilm formation incubated for 24 hrs by crystal violet staining based broth microdilution method; format: functional, organism-based; settings: ATCC 13882, 24 h

## Cc1nn(C)c(NC(=O)c2ccc([N+](=O)[O-])cc2)c1[N+]#N
Staphylococcus aureus [1]
  Activity: 96%

## CCCCCCCCCc1nc2cc(F)ccc2c(=O)n1N
[2]
  pIC50: 5.92

## CCCCCCCCCCCC(=O)Nc1cc(=O)c2ccccc2[nH]1
Staphylococcus aureus [3]
  Activity: >=50%
Pseudomonas aeruginosa [4]
  Activity: >=50%

## Clc1ccc(-c2csc(-c3ccc(-c4cnc(-c5ccccc5)s4)cc3)n2)cc1
Enterococcus faecalis [5]
  MIC: 0.032 µg/mL (≈ 0.0742 µM)
Enterococcus faecalis [6]
  MBEC: 0.016 µg/mL

## NCCCCCCCCCCCCNc1ccnc2cc(Cl)ccc12
[7]
  pIC50: 4.92
Pseudomonas aeruginosa [8]
  Activity: 85%

## O=C(CCCCCOc1cccc(C(F)(F)F)c1)NNC(=O)Cn1c(=O)oc2ccccc21
[9]
  inhibition: 63%
Pseudomonas aeruginosa [10]
  Activity: 45%

## CCCCCCCCCC(=O)NC1CCCC1 [N-CYCLOPENTYLDECANAMIDE]
[11]
  pIC50: 4.10

## N#Cc1ccnc(C(F)F)c1
[9]
  pIC50: 4.77
Pseudomonas aeruginosa [12]
  Activity: 73%

## NC(=O)c1cc(-c2csc(-c3ccc(-c4cnc(-c5ccccc5)s4)cc3)n2)ccc1O
Enterococcus faecalis [5]
  MIC: 0.25 µg/mL (≈ 0.549 µM)
Enterococcus faecalis [6]
  MBEC: 0.008 µg/mL

## COc1ccc(OCCCCCCCC(=O)NNC(=O)Cn2c(=O)oc3ncccc32)cc1
[9]
  inhibition: 53%
Pseudomonas aeruginosa [10]
  Activity: 40%
Pseudomonas aeruginosa [13]
  Activity: 48.27%
Pseudomonas aeruginosa [14]
  Activity: 49.79%

## O=C(CSC(=S)N[C@@H]1CCOC1=O)CC(=O)Nc1cccc2ccccc12
Pseudomonas aeruginosa [15]
  Activity: 35%

## CCCCCCCCCCCC(=O)Nc1c(N)[nH]c2ccccc2c1=O
Staphylococcus aureus [3]
  Activity: >=50%
Pseudomonas aeruginosa [4]
  Activity: >=50%

## c1ccc(-c2csc(-c3ccc(-c4cnc(-c5ccccc5)s4)cc3)n2)cc1
Enterococcus faecalis [5]
  MIC: 0.125 µg/mL (≈ 0.315 µM)
Enterococcus faecalis [6]
  MBEC: 0.002 µg/mL

## CCCCCCCNC(=O)CCc1c[nH]c(N)n1
Pseudomonas aeruginosa [16]
  pIC50: 4.37

## CCCCCCCC(=O)NC1CCCC1
[11]
  pIC50: 3.60

## Cc1ccc(C(=O)c2nn(-c3nc(-c4ccccc4)c(-c4sc(-n5nc(C(=O)c6ccc(C(F)(F)F)cc6)c(C#N)c5N)nc4-c4ccccc4)s3)c(N)c2C#N)cc1
Staphylococcus aureus [17]
  Activity: 35%
Staphylococcus aureus [18]
  Activity: 20%
Staphylococcus aureus [19]
  Activity: 15%

## O=[N+]([O-])c1ccc(-c2csc(-c3ccc(-c4cnc(-c5ccccc5)s4)cc3)n2)cc1
Enterococcus faecalis [5]
  MIC: 0.062 µg/mL (≈ 0.14 µM)
Enterococcus faecalis [6]
  MBEC: 0.002 µg/mL

## CCCCCc1ccc(C(=O)NCCn2cc(CCCCCc3[nH]cnc3-c3cnc4ccccc4c3)nn2)cc1
Staphylococcus aureus [20]
  pIC50: 5.43

## CCCCCc1ccc(C(=O)NCCn2cc(CCCCCc3c[nH]c(N)n3)nn2)cc1
Staphylococcus aureus [21]
  pIC50: > 5.14

## Clc1ccc2c(NCCCCCCCCNCc3cc4ccccc4s3)ccnc2c1
[22]
  pIC50: 4.52

## O=C(CCCCCCCCCN=C=S)CC(=O)N[C@H]1CCOC1=O
Pseudomonas aeruginosa [23]
  Activity: 50%

## Clc1ccc2c(NCCCCCCCCNCc3cc4ccccc4o3)ccnc2c1
[22]
  pIC50: 4.60

## Cc1nn(C)c([N-]C(=O)c2ccc(Cl)cc2)c1[N+]#N
Staphylococcus aureus [1]
  Activity: 69%

## O=C(CCCOc1cccc(Br)c1)NC1CCSC1=O (stereo not drawn)
Pseudomonas aeruginosa [24]
  Activity: 62%
[7]
  pIC50: 5.10

## CCCCCCCCCCCCCCCC(=O)Nc1c(N)[nH]c2ccccc2c1=O
Staphylococcus aureus [3]
  Activity: >=50%
Pseudomonas aeruginosa [4]
  Activity: >=50%

## COc1cccc(NC(=O)CC(=O)CSC(=S)N[C@@H]2CCOC2=O)c1
Pseudomonas aeruginosa [15]
  Activity: 35%

## Nc1nccc(-c2cccc(NC(=O)c3cc(Cl)cc(Cl)c3)c2)n1
Klebsiella pneumoniae
  pIC50: 4.58
